Measured values as given in ChEMBL document CHEMBL5620346, “Current scenario of pyrazole hybrids with in vivo therapeutic potential against cancers” (Eur J Med Chem, 2023).

Columns and labels:
[1] = biological target: Vascular endothelial growth factor receptor 1 (Homo sapiens, UniProt P17948); test: Inhibition of VEGFR1 (unknown origin)
[2] = biological target: Vascular endothelial growth factor receptor 2 (Homo sapiens, UniProt P35968); test: Inhibition of VEGFR2 (unknown origin)
SNU-16 = test: Antiproliferative activity against human SNU-16 cells assessed as reduction in cell viability by SRB assay; format: functional, cell-based
KG-1 = test: Antiproliferative activity against human KG-1 cells assessed as reduction in cell viability by SRB assay
NCI-H1581 [3] = test: Antiproliferative activity against human NCI-H1581 cells assessed as reduction in cell viability by SRB assay; format: functional, cell-based
[4] = Antiproliferative activity against human UMUC14 cells assessed as reduction in cell viability by SRB assay; format: functional, cell-based
[5] = Cmax in CD-1 mouse at 3 mg/kg, ip measured after 24 hrs by LC-MS/MS analysis; format: ADME, organism-based; conditions: in vivo
[6] = AUC (0 to infinity) in CD-1 mouse at 3 mg/kg, ip measured after 24 hrs by LC-MS/MS analysis; format: ADME, organism-based; conditions: in vivo
[7] = Half life in CD-1 mouse at 3 mg/kg, ip measured after 24 hrs by LC-MS/MS analysis; format: ADME, organism-based; conditions: in vivo
NCI-H1581 [8] = test: Antitumor activity against human NCI-H1581 cells xenografted in BALB/c nude mouse assessed as tumor growth inhibition once daily at 50 mg/kg, ip for 24 days relative to control; conditions: NCI-H1581, 576 h, read-out: TGI
NCI-H1581 [9] = test: Antitumor activity against human NCI-H1581 cells xenografted in BALB/c nude mouse assessed as tumor growth inhibition once daily at 10 mg/kg, ip for 24 days relative to control; conditions: NCI-H1581, 576 h, read-out: TGI
B16-F10 [10] = test: Antitumor activity against mouse B16-F10 cells implanted in C57BL/6 mouse assessed tumor growth inhibition at 2.5 mg/kg, ip measured for 14 days relative to control; format: functional; conditions: B16-F10, 336 h, time 14 day, read-out: TGI
B16-F10 [11] = test: Antiproliferative activity against mouse B16-F10 cells assessed as reduction in cell proliferation incubated for 4 days by crystal violet based assay; format: functional; conditions: B16-F10, 96 h
MDA-MB-231 = test: Antiproliferative activity against human MDA-MB-231 cells assessed as reduction in cell viability incubated for 48 hrs by MTT assay; format: functional, cell-based; conditions: MDA-MB-231, 48 h
COLO357 = test: Inhibition of cell growth in human COLO357 cells incubated for 72 hrs by MTT assay; format: functional, cell-based; conditions: COLO357, 72 h
MIA PaCa-2 = test: Antiproliferative activity against human MIA PaCa-2 cells measured after 72 hrs by MTT assay; format: functional, cell-based; conditions: MIA PaCa-2, 72 h
PANC-1 = test: Anticancer activity against human PANC-1 cells assessed as reduction in cell viability by measuring ATP level incubated for 24 hrs by CellTiter-Glo assay; format: functional, cell-based; conditions: PANC-1, 24 h
Panc02 = test: Antiproliferative activity against mouse Panc02 cells measured after 72 hrs by MTT assay; format: functional, cell-based; conditions: Panc02, 72 h
MCF7 = test: Antiproliferative activity against human MCF7 cells assessed as reduction in cell viability incubated for 48 hrs by MTT assay; format: functional, cell-based; conditions: MCF7, 48 h
HT-29 [12] = test: Antitumor activity against human HT-29 cells xenografted in BALB/c mouse assessed as reduction in tumor growth at 50 mg/kg, po administered once daily for 14 days relative to control; format: functional; conditions: HT-29, 336 h, time 14 day, read-out: TGI
HT-29 [13] = test: Antitumor activity against human HT-29 cells xenografted in BALB/c mouse assessed as reduction in tumor growth at 50 mg/kg, ip administered once daily for 14 days relative to control; format: functional; conditions: HT-29, 336 h, time 14 day, read-out: TGI

Vascular endothelial growth factor receptor 1, sequence (P17948 whole entry): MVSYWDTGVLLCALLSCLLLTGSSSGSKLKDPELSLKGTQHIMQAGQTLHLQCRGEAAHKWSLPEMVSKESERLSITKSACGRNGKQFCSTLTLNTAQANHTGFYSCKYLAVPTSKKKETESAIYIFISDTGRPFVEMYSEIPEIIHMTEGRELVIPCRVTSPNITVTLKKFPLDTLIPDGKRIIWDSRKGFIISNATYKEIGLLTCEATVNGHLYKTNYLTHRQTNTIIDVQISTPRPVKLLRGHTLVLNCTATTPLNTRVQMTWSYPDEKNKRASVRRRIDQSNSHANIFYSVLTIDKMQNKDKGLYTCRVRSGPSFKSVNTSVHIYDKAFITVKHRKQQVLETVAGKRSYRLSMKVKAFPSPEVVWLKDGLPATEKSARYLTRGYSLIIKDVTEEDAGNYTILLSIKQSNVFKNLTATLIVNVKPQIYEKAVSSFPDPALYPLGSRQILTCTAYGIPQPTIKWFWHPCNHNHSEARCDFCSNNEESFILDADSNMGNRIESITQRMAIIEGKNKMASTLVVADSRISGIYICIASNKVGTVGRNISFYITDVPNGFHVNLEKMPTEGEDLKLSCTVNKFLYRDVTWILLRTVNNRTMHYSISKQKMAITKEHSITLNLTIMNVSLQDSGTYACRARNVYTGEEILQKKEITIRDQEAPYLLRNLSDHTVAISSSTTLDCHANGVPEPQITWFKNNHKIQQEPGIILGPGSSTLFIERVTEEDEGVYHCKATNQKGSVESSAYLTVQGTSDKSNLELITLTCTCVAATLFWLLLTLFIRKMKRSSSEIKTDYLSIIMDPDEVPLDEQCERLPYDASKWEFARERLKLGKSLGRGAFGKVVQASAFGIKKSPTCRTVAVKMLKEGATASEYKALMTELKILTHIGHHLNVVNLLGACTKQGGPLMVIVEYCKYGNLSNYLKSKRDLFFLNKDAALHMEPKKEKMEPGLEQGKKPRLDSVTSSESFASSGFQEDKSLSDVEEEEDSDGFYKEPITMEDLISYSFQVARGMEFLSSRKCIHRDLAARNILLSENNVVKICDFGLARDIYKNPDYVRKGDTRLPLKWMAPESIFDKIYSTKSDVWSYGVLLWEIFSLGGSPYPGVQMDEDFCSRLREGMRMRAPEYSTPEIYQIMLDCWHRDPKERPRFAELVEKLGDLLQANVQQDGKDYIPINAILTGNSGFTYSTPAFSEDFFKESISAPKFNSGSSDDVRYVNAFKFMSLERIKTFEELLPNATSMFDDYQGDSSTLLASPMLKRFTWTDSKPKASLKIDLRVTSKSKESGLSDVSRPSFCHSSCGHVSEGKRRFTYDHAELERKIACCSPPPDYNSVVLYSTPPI
Vascular endothelial growth factor receptor 2, sequence (P35968 whole entry): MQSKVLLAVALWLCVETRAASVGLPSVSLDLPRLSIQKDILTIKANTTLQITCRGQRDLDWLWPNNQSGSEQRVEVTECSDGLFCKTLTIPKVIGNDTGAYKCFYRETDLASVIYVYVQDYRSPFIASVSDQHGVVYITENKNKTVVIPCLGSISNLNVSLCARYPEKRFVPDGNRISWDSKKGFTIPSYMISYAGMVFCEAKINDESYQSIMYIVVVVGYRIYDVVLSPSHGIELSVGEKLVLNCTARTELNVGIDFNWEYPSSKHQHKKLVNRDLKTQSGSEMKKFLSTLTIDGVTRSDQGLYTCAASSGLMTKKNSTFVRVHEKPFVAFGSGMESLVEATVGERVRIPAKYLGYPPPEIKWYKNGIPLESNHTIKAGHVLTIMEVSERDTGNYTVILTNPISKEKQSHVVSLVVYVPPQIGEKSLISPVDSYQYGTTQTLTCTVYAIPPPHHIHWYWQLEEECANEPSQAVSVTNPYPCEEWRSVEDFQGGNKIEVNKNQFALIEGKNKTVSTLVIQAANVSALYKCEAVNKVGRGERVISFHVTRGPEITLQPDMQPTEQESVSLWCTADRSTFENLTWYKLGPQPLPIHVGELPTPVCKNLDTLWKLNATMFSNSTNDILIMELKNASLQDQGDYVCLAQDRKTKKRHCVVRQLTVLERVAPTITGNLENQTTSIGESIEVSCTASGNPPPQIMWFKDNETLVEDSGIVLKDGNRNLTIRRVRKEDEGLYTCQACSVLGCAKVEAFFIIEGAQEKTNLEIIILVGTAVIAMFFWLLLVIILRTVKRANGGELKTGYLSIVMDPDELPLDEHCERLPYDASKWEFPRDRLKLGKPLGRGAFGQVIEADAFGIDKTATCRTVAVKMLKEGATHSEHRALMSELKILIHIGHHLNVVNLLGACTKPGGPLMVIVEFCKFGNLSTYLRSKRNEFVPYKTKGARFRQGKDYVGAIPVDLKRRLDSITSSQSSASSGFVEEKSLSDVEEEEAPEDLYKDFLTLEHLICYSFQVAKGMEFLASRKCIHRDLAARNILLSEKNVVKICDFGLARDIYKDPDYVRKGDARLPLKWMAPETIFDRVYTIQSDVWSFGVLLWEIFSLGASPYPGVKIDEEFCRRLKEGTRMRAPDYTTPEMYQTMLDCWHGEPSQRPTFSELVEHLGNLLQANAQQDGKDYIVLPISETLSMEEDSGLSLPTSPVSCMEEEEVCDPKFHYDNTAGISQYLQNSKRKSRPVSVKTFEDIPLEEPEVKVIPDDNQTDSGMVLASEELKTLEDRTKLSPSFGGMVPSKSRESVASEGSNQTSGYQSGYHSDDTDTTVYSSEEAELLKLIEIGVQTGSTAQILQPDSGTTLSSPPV

In the case of Cc1ccc2oc(-c3c4c(N)n[nH]c(=O)c4nn3-c3ccc(NC(=O)/C=C/CN(C)C)cc3)c(C)c2c1, the IC50 [1] is reported as 3 nM, the IC50 [2] is reported as 1.9 nM and the IC50 (SNU-16) is reported as < 0.3 nM. For the same compound, the IC50 (KG-1) was 43 nM, the IC50 (NCI-H1581 [3]) was 43 nM and the IC50 [4] was 43 nM. It also gave a Cmax [5] of 282 ng/mL, an AUC [6] of 704 ng·h/mL and a half-life [7] of 3.7 h. For the same compound, the inhibition in vivo at 50 mg/kg (NCI-H1581 [8]) was 91.6% and the inhibition in vivo at 10 mg/kg (NCI-H1581 [9]) was 74.4%.
Clc1ccccc1C(c1ccccc1)(c1ccc(CCC[P+](c2ccccc2)(c2ccccc2)c2ccccc2)cc1)n1cccn1 (stereo unspecified) showed an inhibition in vivo at 2.5 mg/kg (B16-F10 [10]) of 60%, an IC50 (B16-F10 [11]) of 1310 nM and an IC50 (MDA-MB-231) of 1310 nM. The IC50 (COLO357) was 1310 nM, the IC50 (MIA PaCa-2) was 1310 nM and the IC50 (PANC-1) was 1310 nM. It also gave an IC50 (Panc02) of 1310 nM.
For Cc1ccc(C2CC(c3ccc(F)cc3)=NN2C(=O)CN2C(=O)CCC2=O)cc1 (stereo unspecified), the IC50 (MCF7) was 780 nM, the inhibition in vivo at 50 mg/kg (HT-29 [12]) was 60% and the inhibition in vivo at 50 mg/kg (HT-29 [13]) was 66%.
